Experimental data reported in ChEMBL document CHEMBL1914418, “Biochemical and pharmacological profiling of the pro-survival protein Bcl-xL” (Bioorg Med Chem Lett, 2011).

What was measured:
Bcl-2-like protein 1 [1] = target: T1, Bcl-2-like protein 1 (Homo sapiens, UniProt Q07817); test: Displacement of BODIPY-Bak conjugated peptide from GST-tagged human Wild type Bcl-2-like protein 1 expressed in Escherichia coli BL21 cells at 10 uM after 3 hrs by fluorescence polarization competition assay
Bcl-2-like protein 1 [2] = target: T2, Bcl-2-like protein 1 (Homo sapiens, UniProt Q07817, L130G); test: Displacement of BODIPY-Bak conjugated peptide from GST-tagged human Bcl-2-like protein 1 L130G mutant expressed in Escherichia coli BL21 cells at 10 uM after 3 hrs by fluorescence polarization competition assay
T2 sequence (Q07817 whole entry L130G): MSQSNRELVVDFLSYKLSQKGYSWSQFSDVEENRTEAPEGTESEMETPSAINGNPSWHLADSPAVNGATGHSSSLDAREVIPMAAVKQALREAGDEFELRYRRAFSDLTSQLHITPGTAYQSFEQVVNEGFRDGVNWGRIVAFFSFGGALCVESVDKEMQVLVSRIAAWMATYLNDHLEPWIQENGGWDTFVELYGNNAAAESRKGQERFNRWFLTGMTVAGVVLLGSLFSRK

Bcl-2-like protein 1 [3] = target: T3, Bcl-2-like protein 1 (Homo sapiens, UniProt Q07817, L130V); test: Displacement of BODIPY-Bak conjugated peptide from GST-tagged human Bcl-2-like protein 1 L130V mutant expressed in Escherichia coli BL21 cells at 10 uM after 3 hrs by fluorescence polarization competition assay
T3 sequence (Q07817 whole entry L130V): as the sequence (Q07817 whole entry L130G) above, with G130V counted along it

Bcl-2-like protein 2 = target: T4, Bcl-2-like protein 2 (Homo sapiens, UniProt Q92843); test: Displacement of BODIPY-Bak conjugated peptide from GST-tagged human wild type Bcl-W expressed in Escherichia coli BL21 cells at 10 uM after 3 hrs by fluorescence polarization competition assay
T4 sequence (Q92843 whole entry): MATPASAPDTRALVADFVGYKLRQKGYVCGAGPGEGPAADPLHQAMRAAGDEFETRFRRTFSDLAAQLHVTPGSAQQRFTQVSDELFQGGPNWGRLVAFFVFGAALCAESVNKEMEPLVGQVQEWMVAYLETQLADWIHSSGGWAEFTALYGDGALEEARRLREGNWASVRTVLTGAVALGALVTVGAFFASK

[4] = target: Induced myeloid leukemia cell differentiation protein Mcl-1 homolog (Mus musculus, UniProt P97287); test: Displacement of BODIPY-Bak conjugated peptide from GST-tagged mouse wild type MCL1 expressed in Escherichia coli BL21 cells at 10 uM after 3 hrs by fluorescence polarization competition assay
Sequence of Induced myeloid leukemia cell differentiation protein Mcl-1 homolog (P97287 whole entry): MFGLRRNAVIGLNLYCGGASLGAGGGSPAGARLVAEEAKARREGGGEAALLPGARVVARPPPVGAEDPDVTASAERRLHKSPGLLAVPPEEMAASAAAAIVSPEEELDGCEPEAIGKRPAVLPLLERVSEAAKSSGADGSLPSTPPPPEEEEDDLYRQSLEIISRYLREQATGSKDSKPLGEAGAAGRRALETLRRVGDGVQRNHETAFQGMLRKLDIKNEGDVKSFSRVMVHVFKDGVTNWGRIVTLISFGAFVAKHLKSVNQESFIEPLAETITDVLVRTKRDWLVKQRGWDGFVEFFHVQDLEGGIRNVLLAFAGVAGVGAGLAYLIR

Bcl-2-like protein 1 [5] = target: T1, Bcl-2-like protein 1; test: Displacement of BODIPY-Bak conjugated peptide from GST-tagged human Wild type Bcl-2-like protein 1 expressed in Escherichia coli BL21 cells at 40 uM after 3 hrs by fluorescence polarization competition assay
Bcl-2-like protein 1 [6] = target: Bcl-2-like protein 1 (Homo sapiens, UniProt Q07817, A93V); test: Displacement of BODIPY-Bak conjugated peptide from GST-tagged human Bcl-2-like protein 1 A93V mutant expressed in Escherichia coli BL21 cells at 40 uM after 3 hrs by fluorescence polarization competition assay
Sequence of Bcl-2-like protein 1 (Homo sapiens, UniProt Q07817, A93V) (Q07817 whole entry A93V): as the sequence (Q07817 whole entry L130G) above, with A93V, G130L counted along it

Bcl-2-like protein 1 [7] = target: Bcl-2-like protein 1 (Homo sapiens, UniProt Q07817, E96G); test: Displacement of BODIPY-Bak conjugated peptide from GST-tagged human Bcl-2-like protein 1 E96G mutant expressed in Escherichia coli BL21 cells at 40 uM after 3 hrs by fluorescence polarization competition assay
Sequence of Bcl-2-like protein 1 (Homo sapiens, UniProt Q07817, E96G) (Q07817 whole entry E96G): as the sequence (Q07817 whole entry L130G) above, with E96G, G130L counted along it

Bcl-2-like protein 1 [8] = target: Bcl-2-like protein 1 (Homo sapiens, UniProt Q07817, F97V); test: Displacement of BODIPY-Bak conjugated peptide from GST-tagged human Bcl-2-like protein 1 F97V mutant expressed in Escherichia coli BL21 cells at 40 uM after 3 hrs by fluorescence polarization competition assay
Sequence of Bcl-2-like protein 1 (Homo sapiens, UniProt Q07817, F97V) (Q07817 whole entry F97V): as the sequence (Q07817 whole entry L130G) above, with F97V, G130L counted along it

Bcl-2-like protein 1 [9] = target: Bcl-2-like protein 1 (Homo sapiens, UniProt Q07817, R100E); test: Displacement of BODIPY-Bak conjugated peptide from GST-tagged human Bcl-2-like protein 1 R100E mutant expressed in Escherichia coli BL21 cells at 40 uM after 3 hrs by fluorescence polarization competition assay
Sequence of Bcl-2-like protein 1 (Homo sapiens, UniProt Q07817, R100E) (Q07817 whole entry R100E): as the sequence (Q07817 whole entry L130G) above, with R100E, G130L counted along it

Bcl-2-like protein 1 [10] = target: Bcl-2-like protein 1 (Homo sapiens, UniProt Q07817, Y101H); test: Displacement of BODIPY-Bak conjugated peptide from GST-tagged human Bcl-2-like protein 1 Y101H mutant expressed in Escherichia coli BL21 cells at 40 uM after 3 hrs by fluorescence polarization competition assay
Sequence of Bcl-2-like protein 1 (Homo sapiens, UniProt Q07817, Y101H) (Q07817 whole entry Y101H): as the sequence (Q07817 whole entry L130G) above, with Y101H, G130L counted along it

Bcl-2-like protein 1 [11] = target: Bcl-2-like protein 1 (Homo sapiens, UniProt Q07817, E129H); test: Displacement of BODIPY-Bak conjugated peptide from GST-tagged human Bcl-2-like protein 1 E129H mutant expressed in Escherichia coli BL21 cells at 40 uM after 3 hrs by fluorescence polarization competition assay
Sequence of Bcl-2-like protein 1 (Homo sapiens, UniProt Q07817, E129H) (Q07817 whole entry E129H): as the sequence (Q07817 whole entry L130G) above, with E129H, G130L counted along it

Bcl-2-like protein 1 [12] = target: Bcl-2-like protein 1 (Homo sapiens, UniProt Q07817, L130A); test: Displacement of BODIPY-Bak conjugated peptide from GST-tagged human Bcl-2-like protein 1 L130A mutant expressed in Escherichia coli BL21 cells at 40 uM after 3 hrs by fluorescence polarization competition assay
Sequence of Bcl-2-like protein 1 (Homo sapiens, UniProt Q07817, L130A) (Q07817 whole entry L130A): as the sequence (Q07817 whole entry L130G) above, with G130A counted along it

Bcl-2-like protein 1 [13] = target: T2, Bcl-2-like protein 1; test: Displacement of BODIPY-Bak conjugated peptide from GST-tagged human Bcl-2-like protein 1 L130G mutant expressed in Escherichia coli BL21 cells at 40 uM after 3 hrs by fluorescence polarization competition assay
Bcl-2-like protein 1 [14] = target: T3, Bcl-2-like protein 1; test: Displacement of BODIPY-Bak conjugated peptide from GST-tagged human Bcl-2-like protein 1 L130V mutant expressed in Escherichia coli BL21 cells at 40 uM after 3 hrs by fluorescence polarization competition assay
[15] = Displacement of BODIPY-Bak conjugated peptide from GST-tagged human Bcl-2-like protein 1 delta136T mutant expressed in Escherichia coli BL21 cells at 40 uM after 3 hrs by fluorescence polarization competition assay
Bcl-2-like protein 1 [16] = target: Bcl-2-like protein 1 (Homo sapiens, UniProt Q07817, V141A); test: Displacement of BODIPY-Bak conjugated peptide from GST-tagged human Bcl-2-like protein 1 V141A mutant expressed in Escherichia coli BL21 cells at 40 uM after 3 hrs by fluorescence polarization competition assay
Sequence of Bcl-2-like protein 1 (Homo sapiens, UniProt Q07817, V141A) (Q07817 whole entry V141A): as the sequence (Q07817 whole entry L130G) above, with G130L, V141A counted along it

Bcl-2-like protein 1 [17] = target: Bcl-2-like protein 1 (Homo sapiens, UniProt Q07817, A142G); test: Displacement of BODIPY-Bak conjugated peptide from GST-tagged human Bcl-2-like protein 1 A142G mutant expressed in Escherichia coli BL21 cells at 40 uM after 3 hrs by fluorescence polarization competition assay
Sequence of Bcl-2-like protein 1 (Homo sapiens, UniProt Q07817, A142G) (Q07817 whole entry A142G): as the sequence (Q07817 whole entry L130G) above, with G130L, A142G counted along it

Bcl-2-like protein 1 [18] = target: Bcl-2-like protein 1 (Homo sapiens, UniProt Q07817, A142T); test: Displacement of BODIPY-Bak conjugated peptide from GST-tagged human Bcl-2-like protein 1 A142T mutant expressed in Escherichia coli BL21 cells at 40 uM after 3 hrs by fluorescence polarization competition assay
Sequence of Bcl-2-like protein 1 (Homo sapiens, UniProt Q07817, A142T) (Q07817 whole entry A142T): as the sequence (Q07817 whole entry L130G) above, with G130L, A142T counted along it

Bcl-2-like protein 1 [19] = target: Bcl-2-like protein 1 (Homo sapiens, UniProt Q07817, Y195F); test: Displacement of BODIPY-Bak conjugated peptide from GST-tagged human Bcl-2-like protein 1 Y195F mutant expressed in Escherichia coli BL21 cells at 40 uM after 3 hrs by fluorescence polarization competition assay
Sequence of Bcl-2-like protein 1 (Homo sapiens, UniProt Q07817, Y195F) (Q07817 whole entry Y195F): as the sequence (Q07817 whole entry L130G) above, with G130L, Y195F counted along it

Bcl-2-like protein 1 [20] = target: Bcl-2-like protein 1 (Homo sapiens, UniProt Q07817, G196A); test: Displacement of BODIPY-Bak conjugated peptide from GST-tagged human Bcl-2-like protein 1 G196A mutant expressed in Escherichia coli BL21 cells at 40 uM after 3 hrs by fluorescence polarization competition assay
Sequence of Bcl-2-like protein 1 (Homo sapiens, UniProt Q07817, G196A) (Q07817 whole entry G196A): as the sequence (Q07817 whole entry L130G) above, with G130L, G196A counted along it

[21] = Displacement of BODIPY-Bak conjugated peptide from GST-tagged human Bcl-2-like protein 1 A142G, delta136T mutant expressed in Escherichia coli BL21 cells at 40 uM after 3 hrs by fluorescence polarization competition assay

T1 sequence (Q07817 whole entry): as the sequence (Q07817 whole entry L130G) above, with G130L counted along it

With C[C@H]1CN(c2ccc(C(=O)NS(=O)(=O)c3ccc(N[C@H](CCN(C)C)CSc4ccccc4)c([N+](=O)[O-])c3)cc2)CCN1Cc1ccccc1C(F)(F)F the Ki (Bcl-2-like protein 1 [1]) was < 1 nM, the Ki (Bcl-2-like protein 1 [2]) was 99 nM and the Ki (Bcl-2-like protein 1 [3]) was < 1 nM. The Ki (Bcl-2-like protein 2) was 63 nM and the Ki [4] was 2000 nM.
CN(C)CC[C@H](CSc1ccccc1)Nc1ccc(S(=O)(=O)NC(=O)c2ccc(N3CCN(Cc4ccccc4C(F)(F)F)CC3)cc2)cc1[N+](=O)[O-] showed a Ki (Bcl-2-like protein 1 [1]) of 3.5 nM, a Ki (Bcl-2-like protein 1 [2]) of 200 nM and a Ki (Bcl-2-like protein 1 [3]) of 11 nM. The Ki (Bcl-2-like protein 2) was 49 nM and the Ki [4] was > 10000 nM.
With CC(C)[C@H]1CN(Cc2ccccc2C(F)(F)F)CCN1c1ccc(C(=O)NS(=O)(=O)c2ccc(N[C@H](CCN(C)C)CSc3ccccc3)c([N+](=O)[O-])c2)cc1 the Ki (Bcl-2-like protein 1 [1]) was 3.3 nM, the Ki (Bcl-2-like protein 1 [2]) was 83 nM and the Ki (Bcl-2-like protein 1 [3]) was 63 nM. The Ki (Bcl-2-like protein 2) was 59 nM and the Ki [4] was 2000 nM.
With CSCC[C@H](NC(=O)[C@H](CCCNC(=N)N)NC(=O)[C@H](CCCNC(=N)N)NC(=O)[C@H](CC(C)C)NC(=O)[C@H](CCC(=O)O)NC(=O)[C@H](CCCNC(=N)N)NC(=O)CNC(=O)[C@H](Cc1ccc(O)cc1)NC(=O)[C@H](CCCNC(=N)N)NC(=O)[C@H](CCC(N)=O)NC(=O)[C@H](C)NC(=O)[C@H](C)NC(=O)[C@H](Cc1c[nH]c2ccccc12)NC(=O)[C@@H](N)CC(C)C)C(=O)N[C@@H](CO)C(=O)N[C@@H](CC(=O)O)C(=O)N[C@@H](CCC(=O)O)C(=O)N[C@@H](Cc1ccccc1)C(=O)N[C@@H](CCC(=O)O)C(=O)NCC(=O)N[C@@H](CO)C(=O)N[C@@H](Cc1ccccc1)C(=O)N[C@@H](CCCCN)C(=O)NCC(=O)N[C@@H](CC(C)C)C(=O)O the Ki (Bcl-2-like protein 1 [5]) was 3.2 nM, the Ki (Bcl-2-like protein 1 [6]) was < 1 nM and the Ki (Bcl-2-like protein 1 [7]) was < 5 nM. It also gave a Ki (Bcl-2-like protein 1 [8]) of 150 nM, a Ki (Bcl-2-like protein 1 [9]) of 55 nM and a Ki (Bcl-2-like protein 1 [10]) of 96 nM. It also gave a Ki (Bcl-2-like protein 1 [11]) of 77 nM, a Ki (Bcl-2-like protein 1 [12]) of 140 nM and a Ki (Bcl-2-like protein 1 [13]) of 660 nM. For the same compound, the Ki (Bcl-2-like protein 1 [14]) was 11 nM, the Ki [15] was 8.5 nM and the Ki (Bcl-2-like protein 1 [16]) was 42 nM. The Ki (Bcl-2-like protein 1 [17]) was < 1 nM, the Ki (Bcl-2-like protein 1 [18]) was 41 nM and the Ki (Bcl-2-like protein 1 [19]) was 4.5 nM. For the same compound, the Ki (Bcl-2-like protein 1 [20]) was 2.3 nM and the Ki [21] was 9.8 nM.
With CC(C)[C@@H]1CN(Cc2ccccc2C(F)(F)F)CCN1c1ccc(C(=O)NS(=O)(=O)c2ccc(N[C@H](CCN(C)C)CSc3ccccc3)c([N+](=O)[O-])c2)cc1 the Ki (Bcl-2-like protein 1 [1]) was 2.6 nM, the Ki (Bcl-2-like protein 1 [2]) was 280 nM and the Ki (Bcl-2-like protein 1 [3]) was 42 nM. The Ki (Bcl-2-like protein 2) was 21 nM and the Ki [4] was 2000 nM.
